The values that follow are results of earlier work, collected in patent US20150217002A1, “NEAR-INFRARED SPECTROSCOPY AND OPTICAL REPORTER” (THE RESEARCH FOUNDATION FOR THE STATE UNIVERSITY OF NEW YORK, priority 2012, published 2015).

For data set [1] the following is noted: removed from the circulation system by the liver.
The conditions of data set [2]: in blood excited with 800 nm light, 0.08 mg/L.

For the compound `CC1(C)C(/C=C/C=C/C=C/C=C2\N(CCCCS(=O)(=O)O)c3ccc4ccccc4c3C2(C)C)=[N+](CCCCS(=O)(=O)[O-])c2ccc3ccccc3c21` [ICG, indocyanine green], the in vivo half-life result in data set [1] is on record as “about 3 minutes”. Further, in data set [2], the quantum yield result was “about 0.013”.
